Consider 19 compounds from ChEMBL document CHEMBL1275486, “Kinetic characterization of VIM-7, a divergent member of the VIM metallo-beta-lactamase family” (Antimicrob Agents Chemother, 2008).

The term Km denotes the substrate concentration at which the rate is half of its maximum. What is called kcat is the number of substrate molecules converted per active site and unit of time at saturation. In general, kcat/Km refers to the second-order rate constant that governs catalysis at low substrate concentration.

Experiment [1] deals with Escherichia coli. As to the kind of experiment: Activity of Escherichia coli beta-lactamase VIM-1 by spectrophotometry.
The test system of experiment [2] is Escherichia coli. As to the kind of experiment: Ratio of Kcat to Km for Escherichia coli beta-lactamase VIM-1 by spectrophotometry.

On to `CC(=O)OCC1=C(C(=O)O)N2C(=O)[C@@H](NC(=O)Cc3cccs3)[C@H]2SC1`, for which, in the experiment on Escherichia coli [1], the Michaelis-Menten constant (Km) was 55 µM and the kcat is 280 s⁻¹. Moreover, in the experiment on Escherichia coli [2], the kcat/Km worked out at 5.1e+06 M⁻¹ s⁻¹.
The corresponding values for `CC(C)(O/N=C(\C(=O)N[C@@H]1C(=O)N2C(C(=O)[O-])=C(C[n+]3ccccc3)CS[C@H]12)c1csc(N)n1)C(=O)O` are 800 µM, 60 s⁻¹ and 75000 M⁻¹ s⁻¹.
The corresponding values for `CC1(C)S[C@@H]2[C@H](NC(=O)C(C(=O)O)c3ccccc3)C(=O)N2[C@H]1C(=O)O` (stereo not given in full) are 75 µM, 170 s⁻¹ and 2.3e+06 M⁻¹ s⁻¹.
With `CC1(C)S[C@@H]2[C@H](NC(=O)Cc3ccccc3)C(=O)N2[C@H]1C(=O)O`, in the experiment on Escherichia coli [1], the Km is 840 µM. Besides, the specificity constant (kcat/Km) with Escherichia coli [2] is 36000 M⁻¹ s⁻¹.
For `CC1(C)S[C@@H]2[C@H](NC(=O)[C@H](N)c3ccccc3)C(=O)N2[C@H]1C(=O)O`, in the experiment with Escherichia coli [1], the Michaelis constant (Km) was found to be 920 µM and the turnover number (kcat) worked out at 35 s⁻¹. The catalytic efficiency (kcat/Km) with Escherichia coli [2] was 38000 M⁻¹ s⁻¹.
The corresponding values for `CC1(C)S[C@@H]2[C@H](NC(=O)[C@H](NC(=O)N3CCNC3=O)c3ccccc3)C(=O)N2[C@H]1C(=O)O` are 120 µM, 1500 s⁻¹ and 1.25e+07 M⁻¹ s⁻¹.
For `CC1(C)[C@H](C(=O)O)N2C(=O)C[C@H]2S1(=O)=O`, in that order: 200 µM, 10 s⁻¹ and 50000 M⁻¹ s⁻¹.
For `CCN1CCN(C(=O)N[C@@H](C(=O)N[C@@H]2C(=O)N3[C@@H]2SC(C)(C)[C@@H]3C(=O)O)c2ccccc2)C(=O)C1=O`, in the experiment with Escherichia coli [1], the Michaelis-Menten constant (Km) stood at 3500 µM and the turnover number (kcat) was 1900 s⁻¹. Moreover, the kcat/Km in the experiment on Escherichia coli [2] is 540000 M⁻¹ s⁻¹.
The corresponding values for `CO/N=C(\C(=O)N[C@@H]1C(=O)N2C(C(=O)O)=C(COC(C)=O)CS[C@H]12)c1csc(N)n1` are 250 µM, 170 s⁻¹ and 680000 M⁻¹ s⁻¹.
For `CO/N=C(\C(=O)N[C@@H]1C(=O)N2C(C(=O)O)=C(COC(N)=O)CS[C@H]12)c1ccco1`, in that order: 42 µM, 325 s⁻¹ and 7.7e+06 M⁻¹ s⁻¹.
The corresponding values for `CO/N=C(\C(=O)N[C@@H]1C(=O)N2C(C(=O)[O-])=C(C[N+]3(C)CCCC3)CS[C@H]12)c1csc(N)n1` are 150 µM, 550 s⁻¹ and 3.7e+06 M⁻¹ s⁻¹.
Turning to `CO[C@@]1(NC(=O)C(C(=O)O)c2ccc(O)cc2)C(=O)N2C(C(=O)O)=C(CSc3nnnn3C)CO[C@@H]21` (stereo not given in full), in the experiment on Escherichia coli [1], the Km amounted to 450 µM and the catalytic constant (kcat) is 43 s⁻¹. Besides, the kcat/Km in the experiment on Escherichia coli [2] amounted to 96000 M⁻¹ s⁻¹.
The corresponding values for `CO[C@@]1(NC(=O)Cc2cccs2)C(=O)N2C(C(=O)O)=C(COC(N)=O)CS[C@@H]21` are 130 µM, 26 s⁻¹ and 200000 M⁻¹ s⁻¹.
For `C[C@@H](O)[C@H]1C(=O)N2C(C(=O)O)=C(SCCNC=N)C[C@H]12`, in that order: 1.5 µM, 0.2 s⁻¹ and 130000 M⁻¹ s⁻¹.
For `C[C@@H](O)[C@H]1C(=O)N2C(C(=O)O)=C(S[C@@H]3CN[C@H](C(=O)N(C)C)C3)[C@H](C)[C@H]12`, in that order: 50 µM, 13 s⁻¹ and 260000 M⁻¹ s⁻¹.
For the compound `C[C@H]1[C@H](NC(=O)/C(=N\OC(C)(C)C(=O)O)c2csc(N)n2)C(=O)N1S(=O)(=O)O`, in the experiment on Escherichia coli [1], the Km was > 1000 µM and the kcat is < 0.01 s⁻¹.
Turning to `C[C@]1(Cn2ccnn2)[C@H](C(=O)O)N2C(=O)C[C@H]2S1(=O)=O`, in the experiment with Escherichia coli [1], the Km was found to be 340 µM and the kcat amounted to 5.3 s⁻¹. Moreover, the specificity constant (kcat/Km) in the experiment with Escherichia coli [2] turned out to be 16000 M⁻¹ s⁻¹.
The corresponding values for `O=C(Cc1cccs1)N[C@@H]1C(=O)N2C(C(=O)O)=C(/C=C/c3ccc([N+](=O)[O-])cc3[N+](=O)[O-])CS[C@H]12` are 17 µM, 95 s⁻¹ and 5.6e+06 M⁻¹ s⁻¹.
For `O=C(Cc1cccs1)N[C@@H]1C(=O)N2C(C(=O)[O-])=C(C[n+]3ccccc3)CS[C@H]12`, in that order: 30 µM, 315 s⁻¹ and 1.05e+07 M⁻¹ s⁻¹.
